Source: patent publication US20240238299A1, “USE OF PYRROLOPYRIMIDINE COMPOUND” (GUANGZHOU JOYO PHARMATECH CO., LTD, priority 2021, published 2024)

System: MOG35-55-induced experimental autoimmune encephalomyelitis (EAE) mouse model
Test: MOG35-55-induced EAE mouse model, clinical scoring and incidence
Type: in vivo, C57BL/6 mice
Conditions: for reduction rate in AUC for clinical scoring: 14 days, vs vehicle control

Structure (SMILES): C[C@@H]1C[C@H]2[C@@H]3CCC4=CC(=O)C=C[C@]4(C)[C@@]3(F)[C@@H](O)C[C@]2(C)[C@@]1(O)C(=O)CO [Dexamethasone, reference compound]
- reduction rate in AUC for clinical scoring (1 mg/kg QD oral): 65%
- incidence of EAE (G3, 1 mg/kg PO QD, day 0): 0%
- incidence of EAE (G3, 1 mg/kg PO QD, day 2): 0%
- incidence of EAE (G3, 1 mg/kg PO QD, day 4): 0%
- incidence of EAE (G3, 1 mg/kg PO QD, day 7): 0%
- incidence of EAE (G3, 1 mg/kg PO QD, day 9): 0%
- incidence of EAE (G3, 1 mg/kg PO QD, day 11): 0%
- incidence of EAE (G3, 1 mg/kg PO QD, day 12): 10%
- incidence of EAE (G3, 1 mg/kg PO QD, day 13): 20%
- incidence of EAE (G3, 1 mg/kg PO QD, day 14): 60%
- incidence of EAE (G3, 1 mg/kg PO QD, day 15): 60%
- incidence of EAE (G3, 1 mg/kg PO QD, day 16): 60%
- incidence of EAE (G3, 1 mg/kg PO QD, day 17): 50%
- incidence of EAE (G3, 1 mg/kg PO QD, day 18): 50%
- incidence of EAE (G3, 1 mg/kg PO QD, day 19): 50%
- incidence of EAE (G3, 1 mg/kg PO QD, day 20): 50%
- incidence of EAE (G3, 1 mg/kg PO QD, day 21): 50%
- incidence of EAE (G3, 1 mg/kg PO QD, day 22): 40%
- incidence of EAE (G3, 1 mg/kg PO QD, day 23): 30%
- incidence of EAE (G3, 1 mg/kg PO QD, day 24): 30%
- incidence of EAE (G3, 1 mg/kg PO QD, day 25): 30%
- incidence of EAE (G3, 1 mg/kg PO QD, day 26): 30%
- incidence of EAE (G3, 1 mg/kg PO QD, day 27): 30%
- EAE clinical scoring, Mean (G3, 1 mg/kg QD oral, day 0): 0.00
- EAE clinical scoring, Mean (G3, 1 mg/kg QD oral, day 2): 0.00
- EAE clinical scoring, Mean (G3, 1 mg/kg QD oral, day 4): 0.00
- EAE clinical scoring, Mean (G3, 1 mg/kg QD oral, day 7): 0.00
- EAE clinical scoring, Mean (G3, 1 mg/kg QD oral, day 9): 0.00
- EAE clinical scoring, Mean (G3, 1 mg/kg QD oral, day 11): 0.00
- EAE clinical scoring, Mean (G3, 1 mg/kg QD oral, day 12): 0.10
- EAE clinical scoring, Mean (G3, 1 mg/kg QD oral, day 13): 0.20
- EAE clinical scoring, Mean (G3, 1 mg/kg QD oral, day 14): 0.70
- EAE clinical scoring, Mean (G3, 1 mg/kg QD oral, day 15): 1.30
- EAE clinical scoring, Mean (G3, 1 mg/kg QD oral, day 16): 1.70
- EAE clinical scoring, Mean (G3, 1 mg/kg QD oral, day 17): 1.70
- EAE clinical scoring, Mean (G3, 1 mg/kg QD oral, day 18): 1.40
- EAE clinical scoring, Mean (G3, 1 mg/kg QD oral, day 19): 1.30
- EAE clinical scoring, Mean (G3, 1 mg/kg QD oral, day 20): 1.00
- EAE clinical scoring, Mean (G3, 1 mg/kg QD oral, day 21): 0.90
- EAE clinical scoring, Mean (G3, 1 mg/kg QD oral, day 22): 0.80
- EAE clinical scoring, Mean (G3, 1 mg/kg QD oral, day 23): 0.70
- EAE clinical scoring, Mean (G3, 1 mg/kg QD oral, day 24): 0.30
- EAE clinical scoring, Mean (G3, 1 mg/kg QD oral, day 25): 0.30
- EAE clinical scoring, Mean (G3, 1 mg/kg QD oral, day 26): 0.30
- EAE clinical scoring, Mean (G3, 1 mg/kg QD oral, day 27): 0.30

Structure (SMILES): CCCCCCCCc1ccc(CCC(N)(CO)CO)cc1 [Fingolimod, reference compound]
- reduction rate in AUC for clinical scoring (0.5 mg/kg QD oral): 49%
- EAE clinical scoring, Mean (G4, 0.5 mg/kg QD oral, day 0): 0.00
- incidence of EAE (G4, 0.5 mg/kg QD oral, day 0): 0%
- EAE clinical scoring, Mean (G4, 0.5 mg/kg QD oral, day 2): 0.00
- incidence of EAE (G4, 0.5 mg/kg QD oral, day 2): 0%
- EAE clinical scoring, Mean (G4, 0.5 mg/kg QD oral, day 4): 0.00
- incidence of EAE (G4, 0.5 mg/kg QD oral, day 4): 0%
- EAE clinical scoring, Mean (G4, 0.5 mg/kg QD oral, day 7): 0.00
- incidence of EAE (G4, 0.5 mg/kg QD oral, day 7): 0%
- EAE clinical scoring, Mean (G4, 0.5 mg/kg QD oral, day 9): 0.00
- incidence of EAE (G4, 0.5 mg/kg QD oral, day 9): 0%
- EAE clinical scoring, Mean (G4, 0.5 mg/kg QD oral, day 11): 0.00
- incidence of EAE (G4, 0.5 mg/kg QD oral, day 11): 0%
- EAE clinical scoring, Mean (G4, 0.5 mg/kg QD oral, day 12): 0.00
- incidence of EAE (G4, 0.5 mg/kg QD oral, day 12): 0%
- EAE clinical scoring, Mean (G4, 0.5 mg/kg QD oral, day 13): 0.20
- incidence of EAE (G4, 0.5 mg/kg QD oral, day 13): 20%
- EAE clinical scoring, Mean (G4, 0.5 mg/kg QD oral, day 14): 0.70
- incidence of EAE (G4, 0.5 mg/kg QD oral, day 14): 60%
- EAE clinical scoring, Mean (G4, 0.5 mg/kg QD oral, day 15): 1.30
- incidence of EAE (G4, 0.5 mg/kg QD oral, day 15): 80%
- EAE clinical scoring, Mean (G4, 0.5 mg/kg QD oral, day 16): 1.70
- incidence of EAE (G4, 0.5 mg/kg QD oral, day 16): 80%
- EAE clinical scoring, Mean (G4, 0.5 mg/kg QD oral, day 17): 1.70
- incidence of EAE (G4, 0.5 mg/kg QD oral, day 17): 80%
- EAE clinical scoring, Mean (G4, 0.5 mg/kg QD oral, day 18): 1.40
- incidence of EAE (G4, 0.5 mg/kg QD oral, day 18): 70%
- EAE clinical scoring, Mean (G4, 0.5 mg/kg QD oral, day 19): 1.30
- incidence of EAE (G4, 0.5 mg/kg QD oral, day 19): 70%
- EAE clinical scoring, Mean (G4, 0.5 mg/kg QD oral, day 20): 1.00
- incidence of EAE (G4, 0.5 mg/kg QD oral, day 20): 60%
- EAE clinical scoring, Mean (G4, 0.5 mg/kg QD oral, day 21): 0.90
- incidence of EAE (G4, 0.5 mg/kg QD oral, day 21): 50%
- EAE clinical scoring, Mean (G4, 0.5 mg/kg QD oral, day 22): 0.80
- incidence of EAE (G4, 0.5 mg/kg QD oral, day 22): 50%
- EAE clinical scoring, Mean (G4, 0.5 mg/kg QD oral, day 23): 0.70
- incidence of EAE (G4, 0.5 mg/kg QD oral, day 23): 40%
- EAE clinical scoring, Mean (G4, 0.5 mg/kg QD oral, day 24): 0.50
- incidence of EAE (G4, 0.5 mg/kg QD oral, day 24): 20%
- EAE clinical scoring, Mean (G4, 0.5 mg/kg QD oral, day 25): 0.50
- incidence of EAE (G4, 0.5 mg/kg QD oral, day 25): 20%
- EAE clinical scoring, Mean (G4, 0.5 mg/kg QD oral, day 26): 0.50
- incidence of EAE (G4, 0.5 mg/kg QD oral, day 26): 20%
- EAE clinical scoring, Mean (G4, 0.5 mg/kg QD oral, day 27): 0.50
- incidence of EAE (G4, 0.5 mg/kg QD oral, day 27): 20%
